According to patent US20240174636A1, “NOVEL INDOLEAMINE 2,3-DIOXYGENASE INHIBITORS, PROCESSES FOR THE PREPARATION THEREOF AND PHARMACEUTICAL COMPOSITIONS COMPRISING THE SAME” (YUHAN CORPORATION, priority 2021, published 2024):
pIC50: −log10 of the molar value.

Experiments:
IDO1 [1] = target: T1, IDO1 (Homo sapiens, UniProt P14902); test: IDO1 cellular activity using Hela cells (IFN-gamma induced IDO expression, kynurenine absorbance at 480 nm); type: cell-based; conditions: IDO induced with interferon gamma 50 ng/ml, 24 h compound incubation, read-out: Inhibitory Activity (IC50)
T1 sequence (P14902 whole entry): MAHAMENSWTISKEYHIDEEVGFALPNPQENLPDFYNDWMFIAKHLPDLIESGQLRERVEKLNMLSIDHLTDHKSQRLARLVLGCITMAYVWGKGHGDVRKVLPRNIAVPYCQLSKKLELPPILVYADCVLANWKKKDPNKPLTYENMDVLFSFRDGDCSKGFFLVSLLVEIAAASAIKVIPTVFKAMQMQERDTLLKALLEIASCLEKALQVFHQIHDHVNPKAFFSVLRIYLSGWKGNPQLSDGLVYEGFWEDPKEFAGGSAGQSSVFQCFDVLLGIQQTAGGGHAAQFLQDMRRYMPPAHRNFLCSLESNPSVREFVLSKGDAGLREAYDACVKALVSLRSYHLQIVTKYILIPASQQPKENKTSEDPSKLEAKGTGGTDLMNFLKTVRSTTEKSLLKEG
Experimental: Hela cells were seeded at a density of 20000 cells/well in 100 μl of a culture medium (EMEM supplemented with 10% FBS, penicillin 100 U/ml, and streptomycin 100 μg/ml) in a tissue culture-treated 96 well plate. The cells were cultured in a 5% carbon dioxide incubator for 24 hours, treated with recombinant human interferon gamma at the concentration of 50 ng/ml, and then cultured for 48 hours in a 5% carbon dioxide incubator to induce IDO expression.
The activities were measured using IDO1 cellular activity-measuring substrate (IDO1 cellular activity quickDetect supplements catalog: #62000-2, BPS Bioscience). Specifically, an assay medium was prepared by diluting IDO1 assay medium substrate 1 and IDO1 assay medium supplement 2 in a culture medium at a ratio of 1:100, respectively. The test compounds were diluted to the predetermined concentrations in the fresh assay medium. After removing the culture medium using a multi-pipet, 200 μl of each assay medium containing the test material was added into the respective well, followed by incubating in a 5% carbon dioxide incubator for 24 hours. The next day, 140 μl of culture medium from each well was transferred to a new 96-well plate. 10 μl of 6.1N trichloroacetic acid was added into each well, which was then cultured in a 50° C. incubator for 30 minutes. The plate was centrifuged at 2500 rpm for 10 minutes to settle any sediment. A detection reagent solution was prepared by diluting the detection reagent (component D kit, catalog: #62000-2, BPS Bioscience) 50-fold in acetic acid. 100 μl of the supernatant taken from the centrifuged plate was transferred to a new transparent 96-well plate and then 100 μl of the detection reagent solution was added thereto. After reacting at room temperature for 10 minutes, absorbance was measured at 480 nm wavelength. For analysis of the results, the absorbance (At) of the well containing Hela cells in which IDO protein expression was induced without treatment of an inhibitor was 100%; and the absorbance (Ab) of the well containing Hela cells in which IDO protein expression was not induced was 0. The % absorbance was calculated according to the following equation: % Absorbance=(A−Ab)/(At−Ab), A=absorbance of the well treated with the test compound.
The results obtained by calculating the 50% inhibitory concentration (C50) of each compound, from the absorbance values obtained as described above, are shown in Table 1 below.

IDO1 [2] = target: T1, IDO1; test: IDO1 cellular activity using HEK293 cells transfected with IDO1 expression vector; type: cell-based; set-up: host or cells: HEK293 cells, transient transfection with Lipofectamine 2000; conditions: 24 h compound incubation, read-out: Inhibitory Activity (IC50)
Experimental: HEK293 cells were seeded at a density of 30000 cells/well in 100 μl of a culture medium (DMEM supplemented with 10% FBS, penicillin 100 U/ml, and streptomycin 100 μg/ml) in a tissue culture-treated 96 well plate. The cells were cultured in a 5% carbon dioxide incubator for 24 hours, transfected with the IDO1 expression vector (component A in IDO1 cell-based assay kit, catalog #72031, BPS Bioscience) using Lipofectamine 2000 (Life Technologies, #11668027), and then cultured for 24 hours in a 5% carbon dioxide incubator to express the IDO protein.
The activities were measured using a IDO1 cell-based assay kit (catalog #72031, BPS Bioscience). Specifically, an assay medium was prepared by diluting IDO1 assay medium substrate 1 and IDO1 assay medium supplement 2 in a culture medium at a ratio of 1:100, respectively. The test compounds were diluted to the predetermined concentrations in the fresh assay medium. After removing the culture medium using a multi-pipet, 200 μl of each assay medium containing the test material was added into respective well, followed by incubating in a 5% carbon dioxide incubator for 24 hours. The next day, 140 μl of culture medium from each well was transferred to a new 96-well plate. 10 μl of 6.1N trichloroacetic acid was added into each well, which was then cultured in a 50° C. incubator for 30 minutes. The plate was centrifuged at 2500 rpm for 10 minutes to settle any sediment. A detection reagent solution was prepared by diluting the detection reagent (component D in IDO1 cell-based assay kit, catalog #72031 BPS Bioscience) 50-fold in acetic acid. 100 μl of the supernatant taken from the centrifuged plate was transferred to a new transparent 96-well plate and then 100 μl of the detection reagent solution was added thereto. After reacting at room temperature for 10 minutes, absorbance was measured at 480 nm wavelength. For analysis of the results, the absorbance (At) of the well containing HEK293 cells in which IDO protein was expressed without treatment of an inhibitor was 100%; and the absorbance (Ab) of the well containing HEK293 cells in which IDO protein was not expressed was 0. The % absorbance was calculated according to the following equation: % Absorbance=(A−Ab)/(At−Ab), A=absorbance of the well treated with the test compound.

pIC50 (IDO1 [1])	pIC50 (IDO1 [2])	SMILES
8.29	–	CC[C@H](C[C@H]1CC[C@@H](c2ccnc3ccc(F)cc32)CC1)Nc1nc2ccc(OC)cc2s1 [Example 15, N-((R)-1-((cis)-4-(6-fluoroquinolin-4-yl)cyclohexyl)butan-2-yl)-6-methoxybenzo[d]thiazol-2-amine]
7.73	7.74	C[C@H](C[C@H]1CC[C@@H](c2ccnc3ccc(F)cc32)CC1)Nc1c(F)c(=O)oc2cc(Br)ccc12 [Example 11, 7-bromo-3-fluoro-4-(((R)-1-((cis)-4-(6-fluoroquinolin-4-yl)cyclohexyl)propan-2-yl)amino)-2H-chromen-2-one]
7.57	8.12	C[C@H](C[C@H]1CC[C@@H](c2ccnc3ccc(F)cc32)CC1)Nc1nc2ncc(Cl)cc2s1 [Example 23, 6-chloro-N-((R)-1-((cis)-4-(6-fluoroquinolin-4-yl)cyclohexyl)propan-2-yl)thiazolo[4,5-b]pyridin-2-amine]
7.72	–	C[C@H](C[C@H]1CC[C@H](c2ccnc3ccc(F)cc32)CC1)Nc1cc(=O)oc2ccc(Br)cc12 [Example 7, 6-bromo-4-(((R)-1-((trans)-4-(6-fluoroquinolin-4-yl)cyclohexyl)propan-2-yl)amino)-2H-chromen-2-one]
8.12	8.40	C[C@H](C[C@H]1CC[C@@H](c2ccnc3ccc(F)cc32)CC1)Nc1nc2cccc(Cl)c2s1 [Example 18, 7-chloro-N-((R)-1-((cis)-4-(6-fluoroquinolin-4-yl)cyclohexyl)propan-2-yl)benzo[d]thiazol-2-amine]
7.94	8.06	C[C@H](C[C@H]1CC[C@@H](c2ccnc3ccc(F)cc32)CC1)Nc1nc2ncccc2o1 [Example 32, N-((R)-1-((cis)-4-(6-fluoroquinolin-4-yl)cyclohexyl)propan-2-yl)oxazolo[4,5-b]pyridin-2-amine]
7.77	–	C[C@H](C[C@H]1CC[C@H](c2ccnc3ccc(F)cc32)CC1)Nc1cc(=O)oc2cc(Cl)ccc12 [Example 6, 7-chloro-4-(((R)-1-((trans)-4-(6-fluoroquinolin-4-yl)cyclohexyl)propan-2-yl)amino)-2H-chromen-2-one]
8.40	–	COc1ccc2nc(N[C@@H](C[C@H]3CC[C@@H](c4ccnc5ccc(F)cc54)CC3)C3CC3)sc2c1 [Example 16, N-((S)-1-cyclopropyl-2-((cis)-4-(6-fluoroquinolin-4-yl)cyclohexyl)ethyl)-6-methoxybenzo[d]thiazol-2-amine]
7.52	7.49	C[C@H](C[C@H]1CC[C@@H](c2ccnc3ccc(F)cc32)CC1)Nc1nc2ccc(Cl)cc2s1 [Example 13, 6-chloro-N-((R)-1-((cis)-4-(6-fluoroquinolin-4-yl)cyclohexyl)propan-2-yl)benzo[d]thiazol-2-amine]
7.76	8.04	C[C@H](C[C@H]1CC[C@@H](c2ccnc3ccc(F)cc32)CC1)Nc1nc2ncc(Cl)cc2o1 [Example 31, 6-chloro-N-((R)-1-((cis)-4-(6-fluoroquinolin-4-yl)cyclohexyl)propan-2-yl)oxazolo[4,5-b]pyridin-2-amine]

The remaining lines, values behind:

SMILES	pIC50 (IDO1 [1])	pIC50 (IDO1 [2])
C[C@H](C[C@H]1CC[C@@H](c2ccnc3ccc(F)cc32)CC1)Nc1nc2ncccc2s1 [Example 21, N-((R)-1-((cis)-4-(6-fluoroquinolin-4-yl)cyclohexyl)propan-2-yl)thiazolo[4,5-b]pyridin-2-amine]	7.74	–
C[C@H](C[C@H]1CC[C@@H](c2ccnc3ccc(F)cc32)CC1)Nc1nc2c(F)cc(F)cc2s1 [Example 17, 4,6-difluoro-N-((R)-1-((cis)-4-(6-fluoroquinolin-4-yl)cyclohexyl)propan-2-yl)benzo[d]thiazol-2-amine]	7.72	7.69
C[C@H](C[C@H]1CC[C@@H](c2ccnc3ccc(F)cc32)CC1)Nc1nc2ccc(F)cc2o1 [Example 29, 6-fluoro-N-((R)-1-((cis)-4-(6-fluoroquinolin-4-yl)cyclohexyl)propan-2-yl)benzo[d]oxazol-2-amine]	8.00	8.00
C[C@H](C[C@H]1CC[C@@H](c2ccnc3ccc(F)cc32)CC1)Nc1cc(=O)oc2cc(Br)ccc12 [Example 9, 7-bromo-4-(((R)-1-((cis)-4-(6-fluoroquinolin-4-yl)cyclohexyl)propan-2-yl)amino)-2H-chromen-2-one]	7.74	–
C[C@H](C[C@H]1CC[C@H](c2ccnc3ccc(F)cc32)CC1)Nc1ncnc2cc(Cl)ccc12 [Example 4, 7-chloro-N-((R)-1-((trans)-4-(6-fluoroquinolin-4-yl)cyclohexyl)propan-2-yl)quinazolin-4-amine]	7.96	–
C[C@H](C[C@H]1CC[C@H](c2ccnc3ccc(F)cc32)CC1)Nc1c(F)c(=O)oc2cc(Cl)ccc12 [Example 10, 7-chloro-3-fluoro-4-(((R)-1-((trans)-4-(6-fluoroquinolin-4-yl)cyclohexyl)propan-2-yl)amino)-2H-chromen-2-one]	7.99	8.02
COc1ccc2nc(N[C@H](C)C[C@H]3CC[C@@H](c4ccnc5ccc(F)cc54)CC3)sc2n1 [Example 22, N-((R)-1-((cis)-4-(6-fluoroquinolin-4-yl)cyclohexyl)propan-2-yl)-5-methoxythiazolo[5,4-b]pyridin-2-amine]	7.80	7.96
COc1ccc2nc(N[C@H](C)C[C@H]3CC[C@@H](c4ccnc5ccc(F)cc54)CC3)sc2c1 [Example 14, N-((R)-1-((cis)-4-(6-fluoroquinolin-4-yl)cyclohexyl)propan-2-yl)-6-methoxybenzo[d]thiazol-2-amine]	9.00	–
C[C@H](C[C@H]1CC[C@@H](c2ccnc3ccc(F)cc32)CC1)Nc1ncnc2cc(Cl)ccc12 [Example 3, 7-chloro-N-((R)-1-((cis)-4-(6-fluoroquinolin-4-yl)cyclohexyl)propan-2-yl)quinazolin-4-amine]	7.85	–
CCOc1ccc2nc(N[C@H](C)C[C@H]3CC[C@@H](c4ccnc5ccc(F)cc54)CC3)sc2c1 [Example 19, 6-ethoxy-N-((R)-1-((cis)-4-(6-fluoroquinolin-4-yl)cyclohexyl)propan-2-yl)benzo[d]thiazol-2-amine]	7.85	8.10
C[C@H](C[C@H]1CC[C@@H](c2ccnc3ccc(F)cc32)CC1)Nc1ncnc2cc(C#N)ccc12 [Example 1, 4-(((R)-1-((cis)-4-(6-fluoroquinolin-4-yl)cyclohexyl)propan-2-yl)amino)quinazolin-7-carbonitrile]	7.80	–
C[C@H](C[C@H]1CC[C@@H](c2ccnc3ccc(F)cc32)CC1)Nc1nc2ccccc2o1 [Example 24, N-((R)-1-((cis)-4-(6-fluoroquinolin-4-yl)cyclohexyl)propan-2-yl)benzo[d]oxazol-2-amine]	7.77	–
C[C@H](C[C@H]1CC[C@@H](c2ccnc3ccc(F)cc32)CC1)Nc1cc(=O)oc2cc(Cl)ccc12 [Example 8, 7-chloro-4-(((R)-1-((cis)-4-(6-fluoroquinolin-4-yl)cyclohexyl)propan-2-yl)amino)-2H-chromen-2-one]	8.23	–
